Laboratory results: paper PMC3863468 (BioMed Research International, 2013)

What was measured:
[1] = Pharmacokinetic experiment: serum imatinib and N-desmethyl imatinib by HPLC after oral imatinib with or without apigenin; settings: for AUC(0–t) / AUC(0–∞) / C max / CLz/F / MRT(0–t) / MRT(0–∞) / T max / Vz/F / t (1/2)z: then single oral 30 mg/kg imatinib, rat serum, n = 5
Method: HPLC system (Agilent 1100) was equipped with quaternary pump, on-line vacuum degasser, autosampler, column compartment, diode array detector, and Agilent Chem Station Rev A.10.02. […] The detection wavelength was 282 nm, and the injection volume was 20.0 μL.
The serum samples were prepared using liquid-liquid extraction technique. A 300 μL aliquot of the serum sample was taken in a 10 mL glass test tube, and on that 20 μL of IS (100 μg/mL) was spiked and 150 μL of sodium hydroxide solution (0.01 moL/L) was added. After vortex mixing for 30 s, 3 mL of ethyl acetate was added, and the mixture was vortexed for 1 min and then centrifuged at 3000 ×g for 5 min. The organic layer was transferred into another 5 mL tube and evaporated to dryness under a stream of nitrogen gas at 40°C. The residue was reconstituted in 100 μL of mobile phase and vortex-mixed for 1 min, and 20 μL of aliquot was injected into the HPLC system for analysis.
Experimental values were expressed as x-±s . Statistical analyses of main pharmacokinetic parameters were performed by Student's unpaired test using SPSS 16.0 software. A value of P < 0.05 was considered to be significant between two groups.

[2] = cited from earlier work
[3] = group B: apigenin 165 mg/kg for 15 days
[4] = group C: single dose apigenin 165 mg/kg
[5] = group D (single dose apigenin 252 mg/kg) vs group B, rats, 30 mg/kg imatinib
[6] = group D: single dose apigenin 252 mg/kg
[7] = short-term 165 mg/kg apigenin (group C), printed comparison with group B, rats, 30 mg/kg imatinib

O=c1cc(-c2ccc(O)cc2)oc2cc(O)cc(O)c12 [apigenin, reference compound]
dose dependence of effect on imatinib ([1]; 252 mg/kg vs 165 mg/kg short-time apigenin, rats): not dose dependent | effect on the metabolism of imatinib in vivo ([1]; long-term oral administration of apigenin (165 mg/kg for 15 days), rats): accelerated | effect on the metabolism of imatinib in vivo ([1]; single dose of apigenin, rats): inhibited

Cc1ccc(NC(=O)c2ccc(CN3CCNCC3)cc2)cc1Nc1nccc(-c2cccnc2)n1 [N-desmethyl imatinib]
AUC(0–t) ([1]; group A: control (0.5% CMC-Na)): 5977 ± 1626 ng·h/mL | AUC(0–∞) ([1]; group A: control (0.5% CMC-Na)): 6827 ± 2595 ng·h/mL | C max ([1]; group A: control (0.5% CMC-Na)): 678 ± 147 ng/mL | CLz/F ([1]; group A: control (0.5% CMC-Na)): 81.9 ± 29.7 mL/min/kg | MRT(0–t) ([1]; group A: control (0.5% CMC-Na)): 7.085 ± 1.135 h | MRT(0–∞) ([1]; group A: control (0.5% CMC-Na)): 9.718 ± 4.636 h | T max ([1]; group A: control (0.5% CMC-Na)): 3.6 ± 0.894 h | Vz/F ([1]; group A: control (0.5% CMC-Na)): 32.8 ± 10.3 L/kg | t (1/2)z ([1]; group A: control (0.5% CMC-Na)): 5.495 ± 3.92 h | main pharmacokinetic parameters, difference between group A and group B ([1]; group B (apigenin 165 mg/kg for 15 days) vs group A (control), rats): no great differences | AUC(0–t) [1, 3]: 6335 ± 1105 ng·h/mL | AUC(0–∞) [1, 3]: 6672 ± 797 ng·h/mL | C max [1, 3]: 797 ± 73 ng/mL | CLz/F [1, 3]: 75.9 ± 9.87 mL/min/kg | MRT(0–t) [1, 3]: 6.573 ± 0.544 h | MRT(0–∞) [1, 3]: 7.504 ± 0.189 h | T max [1, 3]: 4.0 ± 0.003 h | Vz/F [1, 3]: 26.8 ± 4.49 L/kg | t (1/2)z [1, 3]: 4.083 ± 0.436 h | AUC(0–t) [1, 4]: 4797 ± 602 ng·h/mL | AUC(0–∞) [1, 4]: 5050 ± 797 ng·h/mL | C max [1, 4]: 547 ± 91 ng/mL | CLz/F [1, 4]: 101 ± 16.5 mL/min/kg | MRT(0–t) [1, 4]: 7.227 ± 0.525 h | MRT(0–∞) [1, 4]: 8.397 ± 1.545 h | T max [1, 4]: 4.0 ± 0.005 h | Vz/F [1, 4]: 40.7 ± 12.8 L/kg | t (1/2)z [1, 4]: 4.906 ± 2.093 h | C max reduced compared with group B [1, 5]: 19.82% | V z/F decrease compared with group B [1, 5]: 62.10% | AUC(0–t) [1, 6]: 5262 ± 890 ng·h/mL | AUC(0–∞) [1, 6]: 5545 ± 814 ng·h/mL | C max [1, 6]: 639 ± 130 ng/mL | CLz/F [1, 6]: 91.8 ± 13.9 mL/min/kg | MRT(0–t) [1, 6]: 7.326 ± 0.53 h | MRT(0–∞) [1, 6]: 8.679 ± 1.301 h | T max [1, 6]: 3.8 ± 0.447 h | Vz/F [1, 6]: 43.5 ± 16.1 L/kg | t (1/2)z [1, 6]: 5.376 ± 1.495 h | AUC(0−t) increased in comparison with group B [1, 7]: 19.7% | C max increased in comparison with group B [1, 7]: 19.3%

Cc1ccc(NC(=O)c2ccc(CN3CCN(C)CC3)cc2)cc1Nc1nccc(-c2cccnc2)n1 [imatinib, reference compound]
V z/F decreased (printed: in group B) ([1]; male, Sprague-Dawley, rat, in vivo, 30 mg/kg): 55.1% | AUC(0-t) ([1]; male, Sprague-Dawley, rat, in vivo, po, 30 mg/kg, AUC(0–t)): 90600 ± 11300 ng·h/mL | AUC(0-inf) ([1]; male, Sprague-Dawley, rat, in vivo, po, 30 mg/kg, AUC(0–∞)): 91000 ± 11600 ng·h/mL | Cmax ([1]; male, Sprague-Dawley, rat, in vivo, po, 30 mg/kg, C max): 12100 ± 2020 ng/mL | Tmax ([1]; male, Sprague-Dawley, rat, in vivo, po, 30 mg/kg, T max): 3 ± 1 h | oral bioavailability [2]: ~97%
